Test results as given in US9102670B2, “Pyrido-, pyrazo- and pyrimido-pyrimidine derivatives as mTOR inhibitors” (KuDOS Pharmaceuticals Limited, priority 2006, dated 2015).

tested on: phosphorylation of Serine 473 in Akt; assay: In Vitro Phospho-Ser473 Akt Assay in MDA-MB-468 cells; assay type: cell-based; conditions: Homo sapiens, MDA-MB-468, read-out: IC50 values against mTOR, phospho-Ser473 Akt assay, MDA-MB-468 cells

Structure (SMILES) | IC50
C[C@H]1COCCN1c1nc(N2CCOC[C@@H]2C)c2ccc(-c3ccc(F)cc3)nc2n1 [Example 1aa] | < 100 nM
C[C@H]1COCCN1c1nc(N2CCOC[C@@H]2C)c2ccc(-c3ccc(F)c(C(N)=O)c3)nc2n1 [Example 1ab] | < 300 nM
CCCNC(=O)c1cc(-c2ccc3c(N4CCOC[C@@H]4C)nc(N4CCOC[C@@H]4C)nc3n2)ccc1F [Example 1ac] | < 100 nM
CNC(=O)c1cc(-c2ccc3c(N4CCOC[C@@H]4C)nc(N4CCOC[C@@H]4C)nc3n2)ccc1F [Example 1ae] | < 100 nM
CCNC(=O)c1cc(-c2ccc3c(N4CCOC[C@@H]4C)nc(N4CCOC[C@@H]4C)nc3n2)ccc1F [Example 1af] | < 100 nM
C[C@H]1COCCN1c1nc(N2CCOC[C@@H]2C)c2ccc(-c3ccc(F)c(C(=O)NCCO)c3)nc2n1 [Example 1ag] | < 100 nM
CC(C)NC(=O)c1cccc(-c2ccc3c(N4CCOC[C@@H]4C)nc(N4CCOC[C@@H]4C)nc3n2)c1 [Example 1al] | < 100 nM
C[C@H]1COCCN1c1nc(N2CCOC[C@@H]2C)c2ccc(-c3ccc(S(C)(=O)=O)cc3)nc2n1 [Example 1am] | < 300 nM
C[C@H]1COCCN1c1nc(N2CCOC[C@@H]2C)c2ccc(-c3ccc(C(N)=O)cc3)nc2n1 [Example 1ao] | < 300 nM
C[C@H]1COCCN1c1nc(N2CCOC[C@@H]2C)c2ccc(-c3cccc(C(N)=O)c3)nc2n1 [Example 1as] | < 100 nM
C[C@H]1COCCN1c1nc(N2CCOC[C@@H]2C)c2ccc(-c3cccc(NS(C)(=O)=O)c3)nc2n1 [Example 1at] | < 100 nM
C[C@H]1COCCN1c1nc(N2CCOC[C@@H]2C)c2ccc(-c3cc(F)nc(F)c3)nc2n1 [Example 1ay] | < 300 nM
COC(=O)c1cccc(-c2ccc3c(N4CCOC[C@@H]4C)nc(N4CCOC[C@@H]4C)nc3n2)c1 [Example 1ba] | < 100 nM
COCc1cccc(-c2ccc3c(N4CCOC[C@@H]4C)nc(N4CCOC[C@@H]4C)nc3n2)c1 [Example 1bb] | < 100 nM
C[C@H]1COCCN1c1nc(N2CCOC[C@@H]2C)c2ccc(-c3ccc(F)c(CO)c3)nc2n1 [Example 1bc] | < 100 nM
C[C@H]1COCCN1c1nc(N2CCOC[C@@H]2C)c2ccc(-c3cccc(S(N)(=O)=O)c3)nc2n1 [Example 1bd] | < 300 nM
COCCNC(=O)c1cccc(-c2ccc3c(N4CCOC[C@@H]4C)nc(N4CCOC[C@@H]4C)nc3n2)c1 [Example 1be] | < 100 nM
COC(=O)c1cc(-c2ccc3c(N4CCOC[C@@H]4C)nc(N4CCOC[C@@H]4C)nc3n2)ccc1OC [Example 1bg] | < 100 nM
C[C@H]1COCCN1c1nc(N2CCOC[C@@H]2C)c2ccc(-c3ccc(F)c(NS(C)(=O)=O)c3)nc2n1 [Example 1bk] | < 300 nM

Structure (SMILES) | IC50
C[C@H]1COCCN1c1nc(N2CCOC[C@@H]2C)c2ccc(-c3ccc(C#N)cc3)nc2n1 [Example 1bl] | < 100 nM
C[C@H]1COCCN1c1nc(N2CCOC[C@@H]2C)c2ccc(-c3ccc4[nH]ccc4c3)nc2n1 [Example 1bm] | < 100 nM
COc1ccc(-c2ccc3c(N4CCOC[C@@H]4C)nc(N4CCOC[C@@H]4C)nc3n2)cc1 [Example 1bo] | < 300 nM
C[C@H]1COCCN1c1nc(N2CCOC[C@@H]2C)c2ccc(-c3ccc(Cl)cc3)nc2n1 [Example 1bp] | < 300 nM
Cc1cccc(-c2ccc3c(N4CCOC[C@@H]4C)nc(N4CCOC[C@@H]4C)nc3n2)c1 [Example 1br] | < 100 nM
COc1ccc(-c2ccc3c(N4CCOC[C@@H]4C)nc(N4CCOC[C@@H]4C)nc3n2)cc1F [Example 1bs] | < 100 nM
C[C@H]1COCCN1c1nc(N2CCOC[C@@H]2C)c2ccc(-c3ccoc3)nc2n1 [Example 1bv] | < 100 nM
C[C@@H]1CN(c2nc(N3CCOC[C@@H]3C)c3ccc(-c4cccc(CO)c4)nc3n2)C[C@H](C)O1 [Example 1bx] | < 300 nM
C[C@@H]1CN(c2nc(N3CCOC[C@@H]3C)c3ccc(-c4ccc(CO)cc4)nc3n2)C[C@H](C)O1 [Example 1by] | < 300 nM
C[C@@H]1CN(c2nc(N3CCOC[C@@H]3C)c3ccc(-c4cccc(O)c4)nc3n2)C[C@H](C)O1 [Example 1bz] | < 100 nM
C[C@@H]1CN(c2nc(N3CCOC[C@@H]3C)c3ccc(-c4ccoc4)nc3n2)C[C@H](C)O1 [Example 1cf] | < 300 nM
C[C@@H]1CN(c2nc(N3CCOC[C@@H]3C)c3ccc(-c4ccc(O)cc4)nc3n2)C[C@H](C)O1 [Example 1cg] | < 100 nM
C[C@@H]1CN(c2nc(N3CCOC[C@@H]3C)c3ccc(-c4ccc([N+](=O)[O-])cc4)nc3n2)C[C@H](C)O1 [Example 1ci] | < 300 nM
COc1ccc(-c2ccc3c(N4CCOC[C@@H]4C)nc(N4C[C@@H](C)O[C@@H](C)C4)nc3n2)cc1 [Example 1cj] | < 300 nM
CNC(=O)c1ccc(-c2ccc3c(N4CCOC[C@@H]4C)nc(N4CCOC[C@@H]4C)nc3n2)cc1F [Example 1cv] | < 300 nM
C[C@H]1COCCN1c1nc(N2CCOC[C@@H]2C)c2ccc(-c3ccccc3)nc2n1 [Example 1d] | < 100 nM
C[C@H]1COCCN1c1nc(N2CCOC[C@@H]2C)c2ccc(-c3ccc(O)cc3)nc2n1 [Example 1e] | < 100 nM
Cc1ccc(-c2ccc3c(N4CCOC[C@@H]4C)nc(N4CCOC[C@@H]4C)nc3n2)cc1 [Example 1f] | < 100 nM
C[C@H]1COCCN1c1nc(N2CCOC[C@@H]2C)c2ccc(-c3ccc(CO)cc3)nc2n1 [Example 1g] | < 100 nM

Structure (SMILES) | IC50
C[C@H]1COCCN1c1nc(N2CCOC[C@@H]2C)c2ccc(-c3cccc(O)c3)nc2n1 [Example 1h] | < 100 nM
C[C@H]1COCCN1c1nc(N2CCOC[C@@H]2C)c2ccc(-c3cccc(CO)c3)nc2n1 [Example 1i] | < 100 nM
C[C@@H]1CN(c2nc(N3CCOC[C@@H]3C)c3ccc(-c4ccsc4)nc3n2)C[C@H](C)O1 [Example 1k] | < 100 nM
COc1ccc(-c2ccc3c(N4CCOC[C@@H]4C)nc(N4CCOCC4)nc3n2)cc1CO [Example 1l] | < 100 nM
C[C@H]1COCCN1c1nc(N2CCOC[C@@H]2C)c2ccc(-c3cccnc3F)nc2n1 [Example 1p] | < 300 nM
C[C@H]1COCCN1c1nc(N2CCOC[C@@H]2C)c2ccc(-c3ccc(N4CCOCC4)nc3)nc2n1 [Example 1q] | < 300 nM
C[C@H]1COCCN1c1nc(N2CCOC[C@@H]2C)c2ccc(-c3cnn(C)c3)nc2n1 [Example 1s] | < 100 nM
C[C@H]1COCCN1c1nc(N2CCOC[C@@H]2C)c2ccc(-c3ccc(N)nc3)nc2n1 [Example 1u] | < 100 nM
C[C@H]1COCCN1c1nc(N2CCCCC2CO)nc2nc(-c3cccc(C(N)=O)c3)ccc12 (stereo partly drawn) [Example 2f] | < 300 nM
C[C@H]1COCCN1c1nc(N2CCCCC2CO)nc2nc(-c3ccc(N)nc3)ccc12 (stereo partly drawn) [Example 2g] | < 300 nM
C[C@H]1COCCN1c1nc(N2CCOC[C@@H]2C)c2ccc(-c3cccc(C(=O)Nc4cc[nH]n4)c3)nc2n1 [Example 3a] | < 300 nM
CNC(=O)c1cc(-c2ccc3c(N4CCOC[C@@H]4C)nc(N4CCOC[C@@H]4C)nc3n2)ccc1OC [Example 3ad] | < 100 nM
C[C@H]1COCCN1c1nc(N2CCOC[C@@H]2C)c2ccc(-c3cccc(C(=O)NCCF)c3)nc2n1 [Example 3e] | < 300 nM
C[C@H]1COCCN1c1nc(N2CCOC[C@@H]2C)c2ccc(-c3cccc(C(=O)NC4CCOCC4)c3)nc2n1 [Example 3i] | < 100 nM
C[C@H]1COCCN1c1nc(N2CCOC[C@@H]2C)c2ccc(-c3cccc(C(=O)NCC(F)F)c3)nc2n1 [Example 3l] | < 100 nM
CON(C)C(=O)c1cc(-c2ccc3c(N4CCOC[C@@H]4C)nc(N4CCOC[C@@H]4C)nc3n2)ccc1F [Example 3y] | < 100 nM
CNCc1ccc(-c2ccc3c(N4CCOC[C@@H]4C)nc(N4CCOC[C@@H]4C)nc3n2)cc1 [Example 4a] | < 100 nM
COCCNCc1cc(-c2ccc3c(N4CCOC[C@@H]4C)nc(N4CCOC[C@@H]4C)nc3n2)ccc1F [Example 4aa] | < 300 nM

same assay, conditions: Homo sapiens, MDA-MB-468, read-out: IC50 values against mTOR, phospho-Ser473 Akt assay, MDA-MB-468 cells, upper bound

Structure (SMILES) | IC50
C[C@H]1COCCN1c1nc(N2CCOC[C@@H]2C)c2ccc(-c3ccc(F)nc3)nc2n1 [Example 1ah] | < 1000 nM
C[C@H]1COCCN1c1nc(N2CCOC[C@@H]2C)c2ccc(-c3ccncc3)nc2n1 [Example 1ar] | < 1000 nM
C[C@H]1COCCN1c1nc(N2CCOC[C@@H]2C)c2ccc(-c3ccnc(F)c3)nc2n1 [Example 1au] | < 1000 nM
C[C@H]1COCCN1c1nc(N2CCOC[C@@H]2C)c2ccc(-c3cccc(C#N)c3)nc2n1 [Example 1aw] | < 1000 nM
C[C@H]1COCCN1c1nc(N2CCOC[C@@H]2C)c2ccc(-c3cccc(C(=O)N4CCN(C)CC4)c3)nc2n1 [Example 1bf] | < 1000 nM
C[C@H]1COCCN1c1nc(N2CCOC[C@@H]2C)c2ccc(-c3cccnc3)nc2n1 [Example 1bu] | < 1000 nM
C[C@@H]1CN(c2nc(N3CCOC[C@@H]3C)c3ccc(-c4ccncc4)nc3n2)C[C@H](C)O1 [Example 1ce] | < 1000 nM
C[C@H]1COCCN1c1nc(N2CCOC[C@@H]2C)c2ccc(-c3ccc4nc[nH]c(=O)c4c3)nc2n1 [Example 1cl] | < 1000 nM
C[C@H]1COCCN1c1nc(N2CCCC(CO)C2)nc2nc(-c3cccc(C(N)=O)c3)ccc12 (stereo partly drawn) [Example 2d] | < 1000 nM
C[C@H]1COCCN1c1nc(N2CCC(c3ccncc3)CC2)nc2nc(-c3ccc(N)nc3)ccc12 [Example 2e] | < 1000 nM
C[C@H]1COCCN1c1nc(N2CCC(CO)CC2)nc2nc(-c3cccc(C(N)=O)c3)ccc12 [Example 2h] | < 1000 nM
C[C@H]1COCCN1c1nc(N2CCC(CCO)CC2)nc2nc(-c3ccc(N)nc3)ccc12 [Example 2j] | < 1000 nM
C[C@H]1COCCN1c1nc(N2CCOC[C@@H]2C)c2ccc(-c3cccc(C(=O)NCC(F)(F)F)c3)nc2n1 [Example 3f] | < 1000 nM
C[C@H]1COCCN1c1nc(N2CCOC[C@@H]2C)c2ccc(-c3cccc(C(=O)N4CC[C@@H](O)C4)c3)nc2n1 [Example 3g] | < 1000 nM
CCN(C)C(=O)c1cc(-c2ccc3c(N4CCOC[C@@H]4C)nc(N4CCOC[C@@H]4C)nc3n2)ccc1OC [Example 3u] | < 1000 nM

same assay, conditions: Homo sapiens; phospho-Ser473 Akt assay, MDA-MB-468 cells, upper bound; read-out: IC50 values against mTOR

IC50 | Structure (SMILES)
< 1000 nM | C[C@H]1COCCN1c1nc(N2CCOC[C@@H]2C)c2ccc(-c3cccc(Cl)n3)nc2n1 [Example 1v]
